In US11547681B2, “N-acylethanolamide derivatives and uses thereof” (ELIEM THERAPEUTICS, INC., priority 2016, dated 2023):

Assays:
[1] = in vitro; settings: for Measured concentration of analyte PEA, 0 min / Measured concentration of analyte PEA, 10 min / Measured concentration of analyte PEA, 20 min / Measured concentration of analyte PEA, 30 min / Measured concentration of analyte PEA, 60 min / % Remaining of Initial, 0 min / % Remaining of Initial, 10 min / % Remaining of Initial, 20 min / % Remaining of Initial, 30 min / % Remaining of Initial, 60 min: 1 μM; for % Remaining of Initial, 0 min / % Remaining of Initial, 10 min / % Remaining of Initial, 20 min / % Remaining of Initial, 30 min / % Remaining of Initial, 60 min / microsomal CLint at 1 μM / half-life at 1 μM: microsomes; for % Remaining of Initial, 0 min: 0 h; for % Remaining of Initial, 30 min: 0.5 h; for % Remaining of Initial, 60 min: 1 h
Experimental: The reaction mixture, minus cofactors, was prepared as described below. The test article was added into the reaction mixture at a final concentration of 1 μM. […] An aliquot of the reaction mixture (without cofactor) was equilibrated in a shaking water bath at 37° C. for 3 minutes. The reaction was initiated by the addition of cofactor, and the mixture was incubated in a shaking water bath at 37° C. Aliquots (100 μL) were withdrawn at 0, 10, 20, 30, and 60 minutes. All samples were immediately combined with 400 μL of ice-cold 50/50 acetonitrile/H2O containing 0.1% formic acid and internal standard to terminate the reaction. The samples were then mixed and centrifuged to precipitate proteins. Calibration standards were prepared in matched matrix. All samples and standards were assayed by LC-MS/MS using electrospray ionization for both the dosed prodrug I-9 and the expected drug (PEA). Analytical conditions are outlined in Appendix 4-1. The test article concentration at each time point was compared to the test article concentration at time 0 to determine the percent remaining at each time point. Half-lives were calculated using GraphPad software, fitting to a single-phase exponential decay equation.
(§1) Reaction mixture, minus cofactors, was prepared as described below. Test article was added into the reaction mixture at a final concentration of 1 μM. […] An aliquot of the reaction mixture (without cofactor) was equilibrated in a shaking water bath at 37° C. for 3 minutes. The reaction was initiated by the addition of cofactor, and the mixture was incubated in a shaking water bath at 37° C. Aliquots (100 μL) were withdrawn at 0, 10, 20, 30, and 60 minutes. Test article samples were immediately combined with 300 μL of ice-cold acetonitrile containing 1% formic acid. Control samples were immediately combined with 400 μL of ice-cold 50/50 acetonitrile (ACN)/dH2O containing 0.1% formic acid and internal standard to terminate the reaction. Samples were then mixed and centrifuged to precipitate proteins. Calibration standards were prepared in matched matrix. Samples and standards were assayed by LC-MS/MS using electrospray ionization for both dosed prodrug and expected drug (PEA). Analytical conditions are outlined in Appendix 8-1. Test article concentration at each time point was compared to test article concentration at time 0 to determine the percent remaining at each time point. Half-lives were calculated using GraphPad software, fitting to a single-phase exponential decay equation.
(§2) Reaction mixture, minus cofactors, was prepared as described below. Test article was added into the reaction mixture at a final concentration of 1 μM. […] An aliquot of the reaction mixture (without cofactor) was equilibrated in a shaking water bath at 37° C. for 5 minutes. Reaction was initiated by the addition of cofactor, and the mixture was incubated in a shaking water bath at 37° C. Aliquots (100 μL) were withdrawn at 0, 10, 20, 30, and 60 minutes. Test article samples were immediately combined with 300 μL of ice-cold acetonitrile containing 1% formic acid. Control samples were immediately combined with 400 μL of ice-cold 50/50 acetonitrile (ACN)/dH2O containing 0.1% formic acid and internal standard to terminate the reaction. Samples were then mixed and centrifuged to precipitate proteins. Calibration standards were prepared in matched matrix. Samples and standards were assayed by LC-MS/MS using electrospray ionization for both the dosed prodrug and the expected drug (PEA). Analytical conditions are outlined in Appendix 10-1. Test article concentration at each time point was compared to the test article concentration at time 0 to determine the percent remaining at each time point. Half-lives were calculated using GraphPad software, fitting to a single-phase exponential decay equation.
Reaction mixture, minus cofactors, was prepared as described below. Test article was added into the reaction mixture at a final concentration of 1 μM.

[2] = in vitro; settings: male; for Measured concentration of analyte PEA, 0 min / Measured concentration of analyte PEA, 10 min / Measured concentration of analyte PEA, 20 min / Measured concentration of analyte PEA, 30 min / Measured concentration of analyte PEA, 60 min / % Remaining of Initial, 0 min / % Remaining of Initial, 10 min / % Remaining of Initial, 20 min / % Remaining of Initial, 30 min / % Remaining of Initial, 60 min: 1 μM; for % Remaining of Initial, 0 min / % Remaining of Initial, 10 min / % Remaining of Initial, 20 min / % Remaining of Initial, 30 min / % Remaining of Initial, 60 min / microsomal CLint at 1 μM / half-life at 1 μM: microsomes; for % Remaining of Initial, 0 min: 0 h; for % Remaining of Initial, 30 min: 0.5 h; for % Remaining of Initial, 60 min: 1 h
Experimental: as §1, §2
as §1, with “minutes. Reaction” for “minutes. The reaction”, “300 μL,” for “300 μL”, “Appendix 13-1.” for “Appendix 8-1.”
Reaction mixture, minus cofactors, was prepared as described below.

## CCCCCCCCCCCCCCCC(=O)NCCOC(=O)CCC(=O)OCC(COC(=O)CCCCCCC)OC(=O)CCCCCCC (stereo not drawn) [Compound I-3, PEA-Succinate-Glycerol-Di-Caprylic]
[1]; both, human
  Measured concentration of analyte PEA, 0 min: 0 µM
  Measured concentration of analyte PEA, 10 min: 0.026 µM
  Measured concentration of analyte PEA, 20 min: 0.017 µM
  Measured concentration of analyte PEA, 30 min: 0.019 µM
  Measured concentration of analyte PEA, 60 min: 0.027 µM
  % Remaining of Initial, 0 min: 100%
  % Remaining of Initial, 10 min: 83%
  % Remaining of Initial, 20 min: 79%
  % Remaining of Initial, 30 min: 74%
  % Remaining of Initial, 60 min: 53%
  microsomal CLint at 1 μM: < 23.1 µL/min/mg
[1]; both, human, calculated value in parentheses
  microsomal CLint at 1 μM: 20 µL/min/mg
[1]; both, human, Calculated half-life (in parentheses)
  half-life at 1 μM: 1.15 h
[1]; both, human, Half-life
  half-life at 1 μM: > 1 h
[1]; male, Sprague-Dawley, rat
  Measured concentration of analyte PEA, 0 min: 0.032 µM
  Measured concentration of analyte PEA, 10 min: 0.039 µM
  Measured concentration of analyte PEA, 20 min: 0.018 µM
  Measured concentration of analyte PEA, 30 min: 0.0067 µM
  Measured concentration of analyte PEA, 60 min: 0 µM
  % Remaining of Initial, 0 min: 100%
  % Remaining of Initial, 10 min: 81%
  % Remaining of Initial, 20 min: 88%
  % Remaining of Initial, 30 min: 72%
  % Remaining of Initial, 60 min: 68%
  microsomal CLint at 1 μM: < 23.1 µL/min/mg
[1]; male, Sprague-Dawley, rat, calculated value in parentheses
  microsomal CLint at 1 μM: 12.4 µL/min/mg
[1]; male, Sprague-Dawley, rat, Calculated half-life (in parentheses)
  half-life at 1 μM: 1.87 h
[1]; male, Sprague-Dawley, rat, Half-life
  half-life at 1 μM: > 1 h
[2]; Beagle, dog
  Measured concentration of analyte PEA, 0 min: 0.00074 µM
  Measured concentration of analyte PEA, 10 min: 0.023 µM
  Measured concentration of analyte PEA, 20 min: 0.037 µM
  Measured concentration of analyte PEA, 30 min: 0.042 µM
  Measured concentration of analyte PEA, 60 min: 0.053 µM
  % Remaining of Initial, 0 min: 100%
  % Remaining of Initial, 10 min: 94%
  % Remaining of Initial, 20 min: 85%
  % Remaining of Initial, 30 min: 85%
  % Remaining of Initial, 60 min: 74%
  microsomal CLint at 1 μM: < 23.1 µL/min/mg
[2]; Beagle, dog, Half-life
  half-life at 1 μM: > 1 h
[2]; CD-1, mouse
  Measured concentration of analyte PEA, 0 min: 0.0079 µM
  Measured concentration of analyte PEA, 10 min: 0.025 µM
  Measured concentration of analyte PEA, 20 min: 0.025 µM
  Measured concentration of analyte PEA, 30 min: 0.042 µM
  Measured concentration of analyte PEA, 60 min: 0.025 µM
  % Remaining of Initial, 0 min: 100%
  % Remaining of Initial, 10 min: 82%
  % Remaining of Initial, 20 min: 83%
  % Remaining of Initial, 30 min: 60%
  % Remaining of Initial, 60 min: 70%
  microsomal CLint at 1 μM: < 23.1 µL/min/mg
[2]; CD-1, mouse, calculated value in parentheses
  microsomal CLint at 1 μM: 13.8 µL/min/mg
[2]; CD-1, mouse, Calculated half-life (in parentheses)
  half-life at 1 μM: 1.67 h
[2]; CD-1, mouse, Half-life
  half-life at 1 μM: > 1 h
